Data taken from the NIST ThermoML archive (doi:10.1021/acs.jced.8b00008).
Numbers after ± are expanded uncertainties.

Experiment: xn = mol fraction of the nth substance listed
Conditions: for viscosity / speed of sound / mass density: 102 kPa, Liquid; for viscosity: Concentric cylinders viscometry; for speed of sound: Single path-length method; for mass density: Vibrating tube method; for surface tension liquid-gas: Pendant drop shape

CCC1CCCCC1 [ethylcyclohexane] + CCCCCCCCCCCC
Conditions	mass density [kg/m3]	speed of sound [m/s]	surface tension liquid-gas [mN/m]	viscosity [mPa·s]
293.15 K, x1 = 0.1	751.13 ± 0.7	1296.6 ± 0.6	–	1.43 ± 0.01
293.15 K, x1 = 0.216	754.22 ± 0.7	1295.2 ± 0.6	–	1.34 ± 0.01
293.15 K, x1 = 0.2999	756.65 ± 0.7	1294.3 ± 0.6	–	1.3 ± 0.01
293.15 K, x1 = 0.4	759.77 ± 0.7	1293.4 ± 0.6	–	1.22 ± 0.01
293.15 K, x1 = 0.5	763.3 ± 0.7	1292.4 ± 0.6	–	1.16 ± 0.01
293.15 K, x1 = 0.5999	767.13 ± 0.7	1291.8 ± 0.6	–	1.13 ± 0.01
293.15 K, x1 = 0.7	771.4 ± 0.7	1291.3 ± 0.5	–	1.07 ± 0.01
293.15 K, x1 = 0.8	776.25 ± 0.7	1291.2 ± 0.5	–	0.998 ± 0.012
293.15 K, x1 = 0.9	781.76 ± 0.7	1291.7 ± 0.5	–	0.932 ± 0.012
294 K, x1 = 0.216	–	–	25.1 ± 0.3	–
294 K, x1 = 0.2999	–	–	25.1 ± 0.3	–
294 K, x1 = 0.4	–	–	25.1 ± 0.3	–
294 K, x1 = 0.5	–	–	25.1 ± 0.3	–
294 K, x1 = 0.5999	–	–	25.2 ± 0.3	–
294 K, x1 = 0.8	–	–	25.2 ± 0.3	–
303.15 K, x1 = 0.1	743.84 ± 0.7	1257.8 ± 0.6	–	1.2 ± 0.01
303.15 K, x1 = 0.216	746.88 ± 0.7	1256.6 ± 0.6	–	1.15 ± 0.01
303.15 K, x1 = 0.2999	749.28 ± 0.7	1255.1 ± 0.6	–	1.1 ± 0.01
303.15 K, x1 = 0.4	752.35 ± 0.7	1254 ± 0.6	–	1.04 ± 0.01
303.15 K, x1 = 0.5	755.8 ± 0.7	1253.1 ± 0.6	–	0.966 ± 0.021
303.15 K, x1 = 0.5999	759.56 ± 0.7	1251.7 ± 0.6	–	0.934 ± 0.012
303.15 K, x1 = 0.7	763.73 ± 0.7	1250.7 ± 0.5	–	0.887 ± 0.012
303.15 K, x1 = 0.8	768.48 ± 0.7	1250 ± 0.5	–	0.832 ± 0.012
303.15 K, x1 = 0.9	773.85 ± 0.7	1249.7 ± 0.5	–	0.782 ± 0.012
313.15 K, x1 = 0.1	736.53 ± 0.7	1219.8 ± 0.6	–	1.02 ± 0.01
313.15 K, x1 = 0.216	739.51 ± 0.7	1218.6 ± 0.6	–	0.973 ± 0.012
313.15 K, x1 = 0.2999	741.87 ± 0.7	1216.7 ± 0.6	–	0.939 ± 0.012
313.15 K, x1 = 0.4	744.89 ± 0.7	1215.3 ± 0.6	–	0.899 ± 0.012
313.15 K, x1 = 0.5	748.26 ± 0.7	1214.3 ± 0.6	–	0.876 ± 0.021
313.15 K, x1 = 0.5999	751.95 ± 0.7	1212.4 ± 0.6	–	0.85 ± 0.012
313.15 K, x1 = 0.7	756.03 ± 0.7	1210.9 ± 0.5	–	0.789 ± 0.012
313.15 K, x1 = 0.8	760.66 ± 0.7	1209.6 ± 0.5	–	0.743 ± 0.012
313.15 K, x1 = 0.9	765.89 ± 0.7	1208.6 ± 0.5	–	0.698 ± 0.011
323.15 K, x1 = 0.1	729.18 ± 0.7	1182.5 ± 0.6	–	0.893 ± 0.012
323.15 K, x1 = 0.216	732.1 ± 0.7	1181.1 ± 0.6	–	0.858 ± 0.012
323.15 K, x1 = 0.2999	734.42 ± 0.7	1179 ± 0.6	–	0.823 ± 0.012
323.15 K, x1 = 0.4	737.38 ± 0.7	1177.4 ± 0.6	–	0.79 ± 0.012
323.15 K, x1 = 0.5	740.68 ± 0.7	1176.1 ± 0.6	–	0.759 ± 0.012
323.15 K, x1 = 0.5999	744.29 ± 0.7	1173.8 ± 0.6	–	0.718 ± 0.011
323.15 K, x1 = 0.7	748.27 ± 0.7	1171.9 ± 0.5	–	0.686 ± 0.011
323.15 K, x1 = 0.8	752.78 ± 0.7	1170 ± 0.5	–	0.646 ± 0.011
323.15 K, x1 = 0.9	757.88 ± 0.7	1168.3 ± 0.5	–	0.614 ± 0.011
333.15 K, x1 = 0.1	721.79 ± 0.7	1146.2 ± 0.6	–	0.769 ± 0.012
333.15 K, x1 = 0.216	724.65 ± 0.7	1144.3 ± 0.6	–	0.757 ± 0.012
333.15 K, x1 = 0.2999	726.93 ± 0.7	1142.1 ± 0.6	–	0.713 ± 0.012
333.15 K, x1 = 0.4	729.83 ± 0.7	1140.5 ± 0.6	–	0.685 ± 0.011
333.15 K, x1 = 0.5	733.05 ± 0.7	1138.6 ± 0.6	–	0.667 ± 0.021
333.15 K, x1 = 0.5999	736.58 ± 0.7	1136.2 ± 0.6	–	0.627 ± 0.011
333.15 K, x1 = 0.7	740.46 ± 0.7	1133.9 ± 0.6	–	0.601 ± 0.011
333.15 K, x1 = 0.8	744.85 ± 0.7	1131.3 ± 0.6	–	0.567 ± 0.011
333.15 K, x1 = 0.9	749.79 ± 0.7	1128.9 ± 0.5	–	0.537 ± 0.011

CCC1CCCCC1 [ethylcyclohexane] + CCCCCCCCCCCCCCCC
Conditions	mass density [kg/m3]	speed of sound [m/s]	surface tension liquid-gas [mN/m]	viscosity [mPa·s]
293.15 K, x1 = 0.0997	773.92 ± 0.32	1353.2 ± 0.5	–	3.17 ± 0.02
293.15 K, x1 = 0.1997	774.6 ± 0.32	1348.2 ± 0.5	–	2.87 ± 0.02
293.15 K, x1 = 0.3	775.39 ± 0.32	1343.1 ± 0.5	–	2.57 ± 0.02
293.15 K, x1 = 0.4	776.26 ± 0.32	1337.8 ± 0.5	–	2.26 ± 0.02
293.15 K, x1 = 0.4999	777.42 ± 0.32	1331.4 ± 0.6	–	1.99 ± 0.01
293.15 K, x1 = 0.55	778.05 ± 0.32	1328.1 ± 0.5	–	1.89 ± 0.01
293.15 K, x1 = 0.6	778.71 ± 0.32	1325.3 ± 0.5	–	1.73 ± 0.01
293.15 K, x1 = 0.7001	780.35 ± 0.32	1317.5 ± 0.5	–	1.48 ± 0.02
293.15 K, x1 = 0.8003	782.34 ± 0.32	1309.8 ± 0.5	–	1.25 ± 0.01
293.15 K, x1 = 0.9	784.8 ± 0.32	1301.6 ± 0.5	–	1.04 ± 0.01
296 K, x1 = 0.0997	–	–	26.8 ± 0.3	–
296 K, x1 = 0.1997	–	–	26.7 ± 0.3	–
296 K, x1 = 0.3	–	–	26.4 ± 0.3	–
296 K, x1 = 0.4	–	–	26.2 ± 0.3	–
296 K, x1 = 0.4999	–	–	26.3 ± 0.3	–
296 K, x1 = 0.55	–	–	26.2 ± 0.3	–
296 K, x1 = 0.6	–	–	26 ± 0.3	–
296 K, x1 = 0.7001	–	–	25.9 ± 0.3	–
296 K, x1 = 0.8003	–	–	25.7 ± 0.3	–
296 K, x1 = 0.9	–	–	25.4 ± 0.3	–
303.15 K, x1 = 0.0997	766.96 ± 0.32	1315.5 ± 0.5	–	2.54 ± 0.02
303.15 K, x1 = 0.1997	767.62 ± 0.32	1310.3 ± 0.5	–	2.33 ± 0.02
303.15 K, x1 = 0.3	768.36 ± 0.32	1305.1 ± 0.5	–	2.1 ± 0.01
303.15 K, x1 = 0.4	769.18 ± 0.32	1299.6 ± 0.5	–	1.87 ± 0.01
303.15 K, x1 = 0.4999	770.25 ± 0.32	1292.9 ± 0.5	–	1.67 ± 0.01
303.15 K, x1 = 0.55	770.84 ± 0.32	1289.4 ± 0.5	–	1.58 ± 0.01
303.15 K, x1 = 0.6	771.45 ± 0.32	1286.4 ± 0.5	–	1.46 ± 0.01
303.15 K, x1 = 0.7001	772.96 ± 0.32	1277.9 ± 0.5	–	1.27 ± 0.01
303.15 K, x1 = 0.8003	774.78 ± 0.32	1269.5 ± 0.5	–	1.07 ± 0.01
303.15 K, x1 = 0.9	777.02 ± 0.32	1260.2 ± 0.5	–	0.896 ± 0.012
313.15 K, x1 = 0.0997	760.01 ± 0.32	1278.6 ± 0.5	–	2.07 ± 0.01
313.15 K, x1 = 0.1997	760.63 ± 0.32	1273.4 ± 0.5	–	1.9 ± 0.01
313.15 K, x1 = 0.3	761.32 ± 0.32	1268 ± 0.5	–	1.74 ± 0.01
313.15 K, x1 = 0.4	762.08 ± 0.32	1262.2 ± 0.5	–	1.56 ± 0.01
313.15 K, x1 = 0.4999	763.06 ± 0.32	1255.2 ± 0.5	–	1.4 ± 0.01
313.15 K, x1 = 0.55	763.61 ± 0.32	1251.5 ± 0.5	–	1.34 ± 0.01
313.15 K, x1 = 0.6	764.16 ± 0.32	1248.3 ± 0.5	–	1.24 ± 0.01
313.15 K, x1 = 0.7001	765.54 ± 0.32	1239.2 ± 0.5	–	1.08 ± 0.01
313.15 K, x1 = 0.8003	767.19 ± 0.32	1230 ± 0.5	–	0.93 ± 0.02
313.15 K, x1 = 0.9	769.2 ± 0.32	1219.7 ± 0.5	–	0.782 ± 0.012
323.15 K, x1 = 0.0997	753.07 ± 0.32	1242.7 ± 0.5	–	1.73 ± 0.01
323.15 K, x1 = 0.1997	753.64 ± 0.32	1237.2 ± 0.5	–	1.595 ± 0.013
323.15 K, x1 = 0.3	754.28 ± 0.32	1231.6 ± 0.5	–	1.46 ± 0.01
323.15 K, x1 = 0.4	754.97 ± 0.32	1225.6 ± 0.5	–	1.34 ± 0.01
323.15 K, x1 = 0.4999	755.86 ± 0.32	1218.3 ± 0.5	–	1.21 ± 0.01
323.15 K, x1 = 0.55	756.35 ± 0.32	1214.3 ± 0.5	–	1.15 ± 0.01
323.15 K, x1 = 0.6	756.84 ± 0.32	1211 ± 0.5	–	1.09 ± 0.01
323.15 K, x1 = 0.7001	758.08 ± 0.32	1201.2 ± 0.5	–	0.948 ± 0.012
323.15 K, x1 = 0.8003	759.55 ± 0.32	1191.3 ± 0.5	–	0.822 ± 0.021
323.15 K, x1 = 0.9	761.34 ± 0.32	1180 ± 0.5	–	0.693 ± 0.011
333.15 K, x1 = 0.0997	746.13 ± 0.32	1207.7 ± 0.5	–	1.46 ± 0.01
333.15 K, x1 = 0.1997	746.63 ± 0.32	1202.1 ± 0.5	–	1.355 ± 0.013
333.15 K, x1 = 0.3	747.21 ± 0.32	1196.2 ± 0.5	–	1.25 ± 0.01
333.15 K, x1 = 0.4	747.82 ± 0.32	1189.9 ± 0.5	–	1.16 ± 0.01
333.15 K, x1 = 0.4999	748.62 ± 0.32	1182.3 ± 0.5	–	1.03 ± 0.01
333.15 K, x1 = 0.55	749.06 ± 0.32	1178 ± 0.5	–	0.99 ± 0.01
333.15 K, x1 = 0.6	749.49 ± 0.32	1174.6 ± 0.5	–	0.937 ± 0.012
333.15 K, x1 = 0.7001	750.57 ± 0.32	1164.1 ± 0.5	–	0.821 ± 0.012
333.15 K, x1 = 0.8003	751.86 ± 0.32	1153.4 ± 0.5	–	0.716 ± 0.011
333.15 K, x1 = 0.9	753.41 ± 0.32	1141.2 ± 0.5	–	0.607 ± 0.011
